# Legend:
# Format in all cases: in vitro ADME
# Details in all cases: colchicine 25 µM, NADPH 1 mM, CYP 2 pmol/mL, PBS pH 7.4; mean ± SD (n = 2)
# [1] = molecular target: T1, CYP2C19 (Homo sapiens, UniProt P33261); experiment: Colchicine metabolism by cDNA-expressed recombinant CYP2C19
# T1 construct: purchased Research Institute for Liver Diseases Co., Ltd. (Shanghai, China)
# Method: (§1) Pre-cooled acetonitrile was used to terminate the reaction, and then centrifugation (4 °C, 12,000 rpm, 20 min) was performed to obtain the sample.
# (§2) All samples were analyzed as shown in [17] and are briefly described in Supporting Information. […]
# (§3) Supplementary materials and methods
# (§4) Reference numbers refer to the main text list
# (§5) UHPLC‐Q exactive plus MS Analysis
# (§6) All samples were analyzed on a liquid chromatography system including a Vanquish autosampler, Vanquish detector, Vanquish pump (Thremo Fisher Scientific, Santa Clara, CA). Samples were separated on an ACQUITY UPLC HSS T3 column (2.1×100 mm, […], Waters, USA). The injection volume: 5 μL, and the flow rate was 0.3 mL/min.
# (§7) Phase A was H2O containing 0.01% formic acid, and phase B was acetonitrile containing 0.01% formic acid. The elution gradient was as follows: 0‐12 mi n, 2‐98% B; 12‐14 min, 2% A; 14‐16 min, 98% A. Other parameters are as follows: column temperature 45 ℃ , flow rate of collision gas and dry gas 9 L/min. Capillary voltage 3.5 kV, temperature 350 ℃ , atomizer pressure 35 psi. Vanquish UHPLC‐Q Exactive plus MS (Thermo Fisher, USA) was collected in both positive modes, operating in full scan mode with 60‐900 m/z. […]
# [2] = molecular target: T2, CYP1A2 (Homo sapiens, UniProt P05177); experiment: Colchicine metabolism by cDNA-expressed recombinant CYP1A2
# T2 construct: purchased Research Institute for Liver Diseases Co., Ltd. (Shanghai, China)
# T2 sequence (P05177 1-516): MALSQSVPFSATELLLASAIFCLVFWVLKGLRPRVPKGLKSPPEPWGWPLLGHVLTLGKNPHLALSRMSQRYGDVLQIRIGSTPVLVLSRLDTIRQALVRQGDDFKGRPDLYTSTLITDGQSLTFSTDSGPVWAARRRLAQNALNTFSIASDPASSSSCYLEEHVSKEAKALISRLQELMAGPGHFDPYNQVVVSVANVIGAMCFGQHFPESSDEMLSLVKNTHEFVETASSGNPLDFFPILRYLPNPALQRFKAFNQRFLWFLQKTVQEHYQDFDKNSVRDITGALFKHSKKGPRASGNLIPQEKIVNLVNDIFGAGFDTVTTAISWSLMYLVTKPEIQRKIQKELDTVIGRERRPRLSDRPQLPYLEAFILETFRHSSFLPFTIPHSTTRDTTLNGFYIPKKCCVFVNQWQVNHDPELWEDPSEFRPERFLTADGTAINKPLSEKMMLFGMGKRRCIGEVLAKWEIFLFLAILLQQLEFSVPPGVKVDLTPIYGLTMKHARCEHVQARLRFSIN
# Method: as §1, §2, §3, §4, §5, §6, §7
# [3] = molecular target: T3, CYP2A6 (Homo sapiens, UniProt P11509); experiment: Colchicine metabolism by cDNA-expressed recombinant CYP2A6
# T3 construct: purchased Research Institute for Liver Diseases Co., Ltd. (Shanghai, China)
# Method: as §1, §2, §3, §4, §5, §6, §7
# [4] = molecular target: T4, CYP2E1 (Homo sapiens, UniProt P05181); experiment: Colchicine metabolism by cDNA-expressed recombinant CYP2E1
# T4 construct: purchased Research Institute for Liver Diseases Co., Ltd. (Shanghai, China)
# Method: as §1, §2, §3, §4, §5, §6, §7
# [5] = molecular target: T5, CYP1B1 (Homo sapiens, UniProt Q16678); experiment: Colchicine metabolism by cDNA-expressed recombinant CYP1B1
# T5 construct: purchased Research Institute for Liver Diseases Co., Ltd. (Shanghai, China)
# T5 sequence (Q16678 1-543): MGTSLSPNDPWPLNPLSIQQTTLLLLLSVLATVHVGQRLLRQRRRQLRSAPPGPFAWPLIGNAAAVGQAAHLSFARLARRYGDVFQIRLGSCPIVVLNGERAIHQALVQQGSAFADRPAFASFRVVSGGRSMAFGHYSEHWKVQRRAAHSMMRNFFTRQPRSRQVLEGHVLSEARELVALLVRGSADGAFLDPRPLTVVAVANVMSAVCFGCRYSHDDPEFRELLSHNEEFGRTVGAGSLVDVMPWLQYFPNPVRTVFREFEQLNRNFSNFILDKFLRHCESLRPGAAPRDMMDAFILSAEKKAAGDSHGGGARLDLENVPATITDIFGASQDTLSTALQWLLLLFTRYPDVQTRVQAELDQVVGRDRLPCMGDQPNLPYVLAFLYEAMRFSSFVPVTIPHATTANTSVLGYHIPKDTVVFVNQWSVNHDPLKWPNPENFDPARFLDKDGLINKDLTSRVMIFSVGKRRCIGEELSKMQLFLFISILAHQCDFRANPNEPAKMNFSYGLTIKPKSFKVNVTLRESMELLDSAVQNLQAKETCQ
# Method: as §1, §2, §3, §4, §5, §6, §7
# [6] = molecular target: T6, CYP3A5 (Homo sapiens, UniProt P20815); experiment: Colchicine metabolism by cDNA-expressed recombinant CYP3A5
# T6 construct: purchased Research Institute for Liver Diseases Co., Ltd. (Shanghai, China)
# Method: as §1, §2, §3, §4, §5, §6, §7
# [7] = molecular target: T7, CYP4A11 (Homo sapiens, UniProt Q02928); experiment: Colchicine metabolism by cDNA-expressed recombinant CYP4A11
# T7 construct: purchased Research Institute for Liver Diseases Co., Ltd. (Shanghai, China)
# T7 sequence (Q02928 5-519): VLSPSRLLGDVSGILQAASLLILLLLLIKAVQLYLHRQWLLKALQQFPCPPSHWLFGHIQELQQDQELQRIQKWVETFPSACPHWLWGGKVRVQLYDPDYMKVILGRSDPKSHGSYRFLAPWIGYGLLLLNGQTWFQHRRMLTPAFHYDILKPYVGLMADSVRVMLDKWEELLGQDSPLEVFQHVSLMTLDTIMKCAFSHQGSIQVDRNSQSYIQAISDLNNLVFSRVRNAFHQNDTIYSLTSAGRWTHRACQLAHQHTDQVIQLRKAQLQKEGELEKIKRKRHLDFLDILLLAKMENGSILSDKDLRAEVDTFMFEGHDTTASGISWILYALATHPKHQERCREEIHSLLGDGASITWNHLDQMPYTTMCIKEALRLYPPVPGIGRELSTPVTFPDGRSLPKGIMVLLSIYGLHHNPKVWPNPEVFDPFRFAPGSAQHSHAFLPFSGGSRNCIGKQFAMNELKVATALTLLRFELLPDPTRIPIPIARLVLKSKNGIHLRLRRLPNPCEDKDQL
# Method: as §1, §2, §3, §4, §5, §6, §7
# [8] = molecular target: T8, CYP2C9 (Homo sapiens, UniProt P11712); experiment: Colchicine metabolism by cDNA-expressed recombinant CYP2C9
# T8 construct: purchased Research Institute for Liver Diseases Co., Ltd. (Shanghai, China)
# Method: as §1, §2, §3, §4, §5, §6, §7
# T1 sequence (P33261 whole entry): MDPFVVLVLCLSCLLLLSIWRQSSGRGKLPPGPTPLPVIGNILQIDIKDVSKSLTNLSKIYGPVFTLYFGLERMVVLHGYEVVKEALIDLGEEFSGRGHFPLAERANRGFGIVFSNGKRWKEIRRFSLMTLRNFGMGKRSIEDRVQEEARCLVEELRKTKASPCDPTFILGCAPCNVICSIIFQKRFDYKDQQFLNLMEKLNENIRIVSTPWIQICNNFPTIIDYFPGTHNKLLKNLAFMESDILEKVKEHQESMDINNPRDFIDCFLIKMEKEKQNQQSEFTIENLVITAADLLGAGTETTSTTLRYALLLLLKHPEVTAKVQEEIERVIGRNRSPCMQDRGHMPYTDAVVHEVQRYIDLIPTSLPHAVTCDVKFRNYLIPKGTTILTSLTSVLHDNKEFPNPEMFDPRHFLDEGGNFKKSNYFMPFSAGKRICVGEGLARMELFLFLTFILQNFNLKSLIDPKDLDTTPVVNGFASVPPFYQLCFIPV
# T6 sequence (P20815 whole entry): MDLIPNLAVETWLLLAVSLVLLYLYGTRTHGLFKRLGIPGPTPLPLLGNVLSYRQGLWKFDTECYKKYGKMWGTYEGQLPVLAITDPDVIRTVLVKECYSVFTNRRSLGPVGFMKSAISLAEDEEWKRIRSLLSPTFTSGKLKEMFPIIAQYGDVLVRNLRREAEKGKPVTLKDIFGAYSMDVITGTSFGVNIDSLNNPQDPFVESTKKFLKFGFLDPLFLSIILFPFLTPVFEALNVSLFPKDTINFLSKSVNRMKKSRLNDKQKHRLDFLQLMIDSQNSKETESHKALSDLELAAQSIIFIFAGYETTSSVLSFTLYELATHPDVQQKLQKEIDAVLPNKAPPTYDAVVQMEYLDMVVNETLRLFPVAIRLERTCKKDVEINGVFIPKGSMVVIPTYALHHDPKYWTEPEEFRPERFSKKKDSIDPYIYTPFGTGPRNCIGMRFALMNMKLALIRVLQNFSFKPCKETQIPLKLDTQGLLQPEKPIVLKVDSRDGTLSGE
# T3 sequence (P11509 whole entry): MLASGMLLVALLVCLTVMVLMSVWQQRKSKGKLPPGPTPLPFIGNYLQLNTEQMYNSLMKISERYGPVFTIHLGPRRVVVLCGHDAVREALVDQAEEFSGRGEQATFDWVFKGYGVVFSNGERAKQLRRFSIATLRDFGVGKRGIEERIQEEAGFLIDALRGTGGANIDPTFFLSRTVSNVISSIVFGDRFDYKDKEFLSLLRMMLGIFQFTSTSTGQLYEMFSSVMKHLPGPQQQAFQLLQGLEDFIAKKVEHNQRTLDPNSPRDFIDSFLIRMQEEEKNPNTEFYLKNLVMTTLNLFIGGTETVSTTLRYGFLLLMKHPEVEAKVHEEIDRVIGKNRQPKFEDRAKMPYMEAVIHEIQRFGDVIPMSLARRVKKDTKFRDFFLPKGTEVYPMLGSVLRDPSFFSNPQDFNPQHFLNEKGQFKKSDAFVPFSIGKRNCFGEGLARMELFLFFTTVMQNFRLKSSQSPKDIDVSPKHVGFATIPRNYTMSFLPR
# T4 sequence (P05181 whole entry): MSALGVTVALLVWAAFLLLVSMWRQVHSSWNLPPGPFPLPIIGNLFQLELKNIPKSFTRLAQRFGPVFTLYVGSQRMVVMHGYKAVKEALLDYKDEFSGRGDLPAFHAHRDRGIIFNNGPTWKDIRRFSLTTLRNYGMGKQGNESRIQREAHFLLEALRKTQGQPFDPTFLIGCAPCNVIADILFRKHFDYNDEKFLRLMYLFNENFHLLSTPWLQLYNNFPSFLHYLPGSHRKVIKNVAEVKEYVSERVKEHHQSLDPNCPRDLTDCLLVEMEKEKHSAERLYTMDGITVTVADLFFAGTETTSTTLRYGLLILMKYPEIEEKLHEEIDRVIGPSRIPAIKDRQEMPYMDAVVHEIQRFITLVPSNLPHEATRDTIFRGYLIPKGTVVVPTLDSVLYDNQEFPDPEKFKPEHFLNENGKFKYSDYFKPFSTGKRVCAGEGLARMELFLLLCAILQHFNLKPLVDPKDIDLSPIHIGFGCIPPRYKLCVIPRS
# T8 sequence (P11712 whole entry): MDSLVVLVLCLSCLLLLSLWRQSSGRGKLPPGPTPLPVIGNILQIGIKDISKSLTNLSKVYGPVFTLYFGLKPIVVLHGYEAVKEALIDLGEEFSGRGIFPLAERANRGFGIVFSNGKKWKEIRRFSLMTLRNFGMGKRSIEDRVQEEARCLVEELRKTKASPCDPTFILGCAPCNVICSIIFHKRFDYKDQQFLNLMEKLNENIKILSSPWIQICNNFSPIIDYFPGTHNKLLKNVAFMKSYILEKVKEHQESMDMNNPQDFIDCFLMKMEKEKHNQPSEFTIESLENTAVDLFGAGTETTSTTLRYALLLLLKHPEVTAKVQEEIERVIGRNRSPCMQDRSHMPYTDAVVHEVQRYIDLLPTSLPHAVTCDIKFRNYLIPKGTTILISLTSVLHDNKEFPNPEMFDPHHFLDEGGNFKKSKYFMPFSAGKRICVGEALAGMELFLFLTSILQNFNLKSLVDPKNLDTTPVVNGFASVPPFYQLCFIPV
Compound,peak area of the metabolite after incubation with CYP2C19 as a percentage of the total peak areas from all the CYPs [1],peak area of the metabolite after incubation with CYP1A2 as a percentage of the total peak areas from all the CYPs [2],peak area of the metabolite after incubation with CYP2A6 as a percentage of the total peak areas from all the CYPs [3],peak area of the metabolite after incubation with CYP2E1 as a percentage of the total peak areas from all the CYPs [4],peak area of the metabolite after incubation with CYP1B1 as a percentage of the total peak areas from all the CYPs [5],peak area of the metabolite after incubation with CYP3A5 as a percentage of the total peak areas from all the CYPs [6],peak area of the metabolite after incubation with CYP4A11 as a percentage of the total peak areas from all the CYPs [7],peak area of the metabolite after incubation with CYP2C9 as a percentage of the total peak areas from all the CYPs [8]
COc1c(O)cc2c(c1O)-c1ccc(OC)c(=O)cc1[C@@H](NC(C)=O)CC2 [M8],7.66 ± 2.52%,8.67 ± 3.80%,4.23 ± 0.62%,6.78 ± 0.72%,7.48 ± 2.17%,11.08 ± 1.09%,7.65 ± 1.95%,6.12 ± 3.22%
COc1c(O)cc2c(c1OC)-c1ccc(OC)c(=O)cc1[C@@H](NC(C)=O)C=C2 [M5],8.63 ± 1.05%,8.33 ± 0.00%,7.26 ± 8.64%,7.32 ± 0.00%,7.27 ± 2.20%,8.12 ± 0.00%,8.01 ± 0.00%,7.59 ± 0.00%
COc1cc2c(c(OC)c1OC)-c1ccc(OC)c(=O)cc1C=CC2 [M6],6.74 ± 0.36%,8.69 ± 0.17%,8.25 ± 0.69%,8.09 ± 0.37%,7.14 ± 0.77%,8.06 ± 0.09%,6.01 ± 0.22%,7.33 ± 0.35%
COc1cc2c(c(OC)c1O)-c1ccc(OC)c(=O)cc1[C@@H](NC(C)=O)CC2 [M1],8.35 ± 0.65%,6.36 ± 0.19%,5.39 ± 0.90%,4.77 ± 2.02%,4.56 ± 1.73%,9.93 ± 0.49%,6.48 ± 0.33%,13.68 ± 5.29%
COc1cc2c(c(OC)c1OC)-c1ccc(O)c(=O)cc1[C@@H](NC(C)=O)CC2 [M4],6.69 ± 1.91%,6.72 ± 0.44%,6.66 ± 2.12%,6.93 ± 0.40%,7.00 ± 0.10%,7.36 ± 0.44%,6.78 ± 0.33%,6.44 ± 0.02%
COc1cc2c(c(O)c1OC)-c1ccc(OC)c(=O)cc1[C@@H](NC(C)=O)CC2 [M2],6.27 ± 0.30%,0.00 ± 0.00%,2.64 ± 0.16%,3.69 ± 0.51%,2.53 ± 0.65%,12.14 ± 0.15%,3.57 ± 0.39%,5.57 ± 1.45%
